Measurements reported in patent US8440710B2, “HSL inhibitors useful in the treatment of diabetes” (Hoffmann-La Roche Inc., priority 2009, dated 2013).
pIC50: −log10 of the molar value.

Target: T1, human HSL (Homo sapiens, UniProt Q05469)
T1 construct: generate a full length human HSL ORF with a 3′-His6 tag; made in house; host or cells: High 5 insect cells (baculovirus, pFast-BAC)
T1 sequence (Q05469 1-1076): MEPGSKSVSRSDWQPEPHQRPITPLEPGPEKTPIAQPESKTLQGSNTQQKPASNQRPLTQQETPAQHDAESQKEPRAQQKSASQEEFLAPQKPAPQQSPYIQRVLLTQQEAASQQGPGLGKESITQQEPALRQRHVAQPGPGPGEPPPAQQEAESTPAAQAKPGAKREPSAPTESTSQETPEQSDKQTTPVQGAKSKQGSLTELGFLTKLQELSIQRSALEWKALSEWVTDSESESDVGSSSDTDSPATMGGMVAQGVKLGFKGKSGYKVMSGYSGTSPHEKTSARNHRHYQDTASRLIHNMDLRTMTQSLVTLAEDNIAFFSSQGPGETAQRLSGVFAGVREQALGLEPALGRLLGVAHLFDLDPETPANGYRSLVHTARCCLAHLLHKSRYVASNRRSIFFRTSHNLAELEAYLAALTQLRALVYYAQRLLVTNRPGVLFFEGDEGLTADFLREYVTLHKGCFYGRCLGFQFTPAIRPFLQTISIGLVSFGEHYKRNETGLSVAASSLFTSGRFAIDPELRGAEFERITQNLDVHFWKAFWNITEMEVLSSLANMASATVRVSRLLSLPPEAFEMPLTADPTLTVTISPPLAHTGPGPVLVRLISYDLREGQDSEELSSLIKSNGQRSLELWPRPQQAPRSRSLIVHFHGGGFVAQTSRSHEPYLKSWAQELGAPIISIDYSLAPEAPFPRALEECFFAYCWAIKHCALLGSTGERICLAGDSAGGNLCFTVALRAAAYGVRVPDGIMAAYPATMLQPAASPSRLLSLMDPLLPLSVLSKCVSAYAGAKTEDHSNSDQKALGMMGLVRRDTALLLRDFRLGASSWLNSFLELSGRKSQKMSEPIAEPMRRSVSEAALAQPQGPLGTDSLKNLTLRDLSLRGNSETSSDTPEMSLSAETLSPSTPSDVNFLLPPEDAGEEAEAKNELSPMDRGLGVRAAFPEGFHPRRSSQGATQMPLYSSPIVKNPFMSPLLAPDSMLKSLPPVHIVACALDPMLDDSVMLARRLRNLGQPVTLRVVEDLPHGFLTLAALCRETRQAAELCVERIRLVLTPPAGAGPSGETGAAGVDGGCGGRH
Experiment: Human Hormone-Sensitive Lipase (HSL) enzyme inhibition assay (colorimetric, DMPT substrate)
Format: biochemical
Conditions: human full length HSL-His6, 2,3-dimercapto-1-propanol tributyrate substrate, 37° C. 20 minutes, absorbance at 405 nm; read-out: HSL hum IC50
Procedure: Production of Human Full Length Hormone Sensitive Lipase-His^6:
1) Cloning: cDNA was prepared from commercial human brain polyA+ RNA and used as a template in overlapping PCR to generate a full length human HSL ORF with a 3′-His6 tag. This full length insert was cloned into the pFast-BAC vector and the DNA-sequence of several single clones was verified. DNA from a correct full length clone with the 3′His6 tag was used to transform the E. coli strain DH10BAC. Resulting bacmid DNA was used to generate a titered baculovirus stock for protein generation. The sequence of the encoded HSL conforms to Swissprot entry Q05469, with the additional C-terminal His6-tag. 2) Protein purification: Culture: 5.5 L, High 5 cells expressing human full length HSL-His^6, 48 hr., containing 25 μM E-64. Cell count: […], 90% viable. Cells were thawed. On ice, cells were suspended in Base Buffer containing 10% glycerol, 25 mM Tris-Cl, 300 mM NaCl, 10 mM imidazole, 10 mM 2-mercaptoethanol, 2 μg pepstatin/ml, 2 μg leupeptin/ml, 2 μg antipain/ml, pH 8.0 at 4° C. in a final volume of 475 ml with 3.75×10^7 cells/ml. […] was done at 3×30 sec., Lubrol PX was added to 0.2% final concentration followed by stirring for 15 min. at 4° C. and centrifugation at 25 k×g, 60 min., 4° C. Soluble proteins were mixed with 60 ml of pre-washed and equilibrated Ni-NTA Agarose (Qiagen 30210) followed by tumbling end-over-end, 45 min., 4° C., centrifugation 1000 rpm 5 min and letting resin settle 5 min. Supernatant was removed, the resin washed in the centrifuge vessel using 5 volumes of Base Buffer containing 0.2% Lubrol PX. Centrifugation was done again, then the supernatant discarded. The resin was poured onto a 0.8 μm membrane in a disposable filter unit (Nalge 450-0080), and washed with 5 volumes of Base Buffer containing 0.2% Lubrol PX. It was then washed with 30 volumes of Base Buffer containing 60 mM imidazole pH 7.5 at 4° C. The protein was eluated with 5 volumes of 25 mM Tris-Cl, 300 mM NaCl, 200 mM imidazole, 10 mM 2-mercaptoethanol, pH 7.5 at 4° C. by tumbling resin with buffer end-over-end, 30 min., 4° C. The resin was captured on a 0.2 μm membrane disposable filter unit (Millipore SCGP U02 RE) and the eluate collected in the reservoir. The eluate was concentrated using a 30 k MWCO centrifugal filter device (Sartorius Vivascience Vivacell 100, VC1022), to 20 ml. It was then dialyzed overnight at 4° C., two times against 2 L of 10% glycerol, 25 mM Tris-Cl, 300 mM NaCl, 0.2 mM EDTA, 0.2 mM DTT, pH 7.5 at 4° C. The protein was filtered using a 0.22 μm disposable filter unit (Millipore SCGP00525). The protein concentration was calculated from absorbance at 280 nm, using 280=0.67 cm-1 mg-1. Yield was 235 mg, total. The protein was stored at −80° C. Human Hormone-Sensitive Lipase (HSL) Enzyme Inhibition Assay:
HSL enzyme activity was measured by a colorimetric assay using 2,3-dimercapto-1-propanol tributyrate (Aldrich, St. Louis, Mo.) as a substrate. Typically, 1.5 mM 2,3-dimercapto-1-propanol tributyrate (DMPT) in 100 mM MOPS, pH 7.2, 0.2 mg/ml fatty acid-free BSA was prepared by sonication at 4° C. to homogenous suspension. Test compounds (2 mM stock in DMSO) were diluted 3 fold in series in DMSO. Compound solutions were diluted 24 fold in 1.5 mM DMPT containing solution and 18 ul per well was added to 384-well microplates (Corning Costar). Twelve microliters per well of human HSL (15 ug/ml) was added and the reaction mixture was incubated at 37° C. for 20 minutes. Six microliters of 12 mM dithio-bis-(2-nitrobenzoic acid) (DTNB) in DMSO plus 1.2% SDS and 0.6% Triton X-100 were added and the mixture was incubated at room temperature for 15 minutes. Product production was monitored by reading absorbance at 405 nm on an Envision Reader (PerkinElmer Life and Analytical Sciences, Shelton, Conn.).

Row | SMILES | pIC50
1 | CC(Oc1ccc(N2CCC3(CCC(O)CC3)C2=O)cc1)C(F)(F)F (mixture of isomers) [Example 162, 8-Hydroxy-2-[4-(2,2,2-trifluoro-1-methyl-ethoxy)-phenyl]-2-aza-spiro[4.5]decan-1-one] | 6.66
2 | CCC[C@]1(O)CC[C@]2(CCN(c3ccc(C(O)C(F)(F)F)cc3)C2=O)CC1 (mixture of isomers) [Example 133, (5α,8α)-8-Hydroxy-8-propyl-2-(4-(2,2,2-trifluoro-1-hydroxyethyl)phenyl)-2-aza-spiro[4.5]decan-1-one] | 7.52
3 | CC(C)(C)c1ccc(N2CCC3(CCC(C(O)C(F)(F)F)CC3)C2=O)cc1 (single isomer, unassigned) [Example 360, (5α,8β)-2-(4-tert-Butyl-phenyl)-8-(2,2,2-trifluoro-1-hydroxy-ethyl)-2-aza-spiro[4.5]decan-1-one] | 8.00
4 | CC(C)(C)c1ccc(N2CCC3(CCC(C(O)C(F)(F)F)CC3)C2=O)cc1 (single isomer, unassigned) [Example 361, (5α,8α)-2-(4-tert-Butyl-phenyl)-8-(2,2,2-trifluoro-1-hydroxy-ethyl)-2-aza-spiro[4.5]decan-1-one] | 6.96
5 | O=C1N(c2ccc(OC(F)(F)F)cc2)CC[C@]12CC[C@@H](O)CC2 [Example 1, (5α,8β)-8-Hydroxy-2-(4-trifluoromethoxy-phenyl)-2-aza-spiro[4.5]decan-1-one] | 6.33
6 | O=C1N(c2ccc(OC(F)(F)F)cc2)CC[C@]12CC[C@H](O)CC2 [Example 2, (5α,8α)-8-Hydroxy-2-(4-trifluoromethoxy-phenyl)-2-aza-spiro[4.5]decan-1-one] | 6.82
7 | COc1ccc(N2CC[C@]3(CC[C@@H](OCc4ccccc4)CC3)C2=O)cc1 [Example 3, (5α,8β)-8-Benzyloxy-2-(4-methoxy-phenyl)-2-aza-spiro[4.5]decan-1-one] | 6.21
8 | CCc1ccc(N2CC[C@]3(CC[C@@H](OCc4ccccc4)CC3)C2=O)cc1 [Example 4, (5α,8β)-8-Benzyloxy-2-(4-ethyl-phenyl)-2-aza-spiro[4.5]decan-1-one] | 6.62
9 | CCc1ccc(N2CC[C@]3(CC[C@@H](O)CC3)C2=O)cc1 [Example 5, (5α,8β)-2-(4-Ethyl-phenyl)-8-hydroxy-2-aza-spiro[4.5]decan-1-one] | 5.63
10 | CCCNC(=O)O[C@H]1CC[C@@]2(CCN(c3ccc(CC)cc3)C2=O)CC1 [Example 6, Propyl-carbamic acid [(5α,8β)-2-(4-ethyl-phenyl)-1-oxo-2-aza-spiro[4.5]dec-8-yl]ester] | 7.00
11 | CCc1ccc(N2CC[C@]3(CC[C@@H](OC(=O)NCc4cccc(F)c4)CC3)C2=O)cc1 [Example 7, (3-Fluoro-benzyl)-carbamic acid [(5α,8β)-2-(4-ethyl-phenyl)-1-oxo-2-aza-spiro[4.5]dec-8-yl]ester] | 7.15
12 | CCc1ccc(N2CC[C@]3(CC[C@@H](OC(=O)Nc4ccccc4)CC3)C2=O)cc1 [Example 8, Phenyl-carbamic acid [(5α,8β)-2-(4-ethyl-phenyl)-1-oxo-2-aza-spiro[4.5]dec-8-yl]ester] | 6.57
13 | O=C1N(c2ccc(OC(F)(F)F)cc2)CC[C@]12CC[C@@H](OCc1ccccc1)CC2 [Example 9, (5α,8β)-8-Benzyloxy-2-(4-trifluoromethoxy-phenyl)-2-aza-spiro[4.5]decan-1-one] | 6.72
14 | O=C(NCc1cccc(F)c1)O[C@H]1CC[C@@]2(CCN(c3ccc(OC(F)(F)F)cc3)C2=O)CC1 [Example 10, (3-Fluoro-benzyl)-carbamic acid [(5α,8β)-1-oxo-2-(4-trifluoromethoxy-phenyl)-2-aza-spiro[4.5]dec-8-yl]ester] | 7.22
15 | CCCNC(=O)O[C@H]1CC[C@@]2(CCN(c3ccc(OC(F)(F)F)cc3)C2=O)CC1 [Example 11, Propyl-carbamic acid [(5α,8β)-1-oxo-2-(4-trifluoromethoxy-phenyl)-2-aza-spiro[4.5]dec-8-yl]ester] | 7.40
16 | COc1cccc(CNC(=O)O[C@H]2CC[C@@]3(CCN(c4ccc(OC(F)(F)F)cc4)C3=O)CC2)c1 [Example 12, (3-Methoxy-benzyl)-carbamic acid [(5α,8β)-1-oxo-2-(4-trifluoromethoxy-phenyl)-2-aza-spiro[4.5]dec-8-yl]ester] | 7.22
17 | COc1ccc(CNC(=O)O[C@H]2CC[C@@]3(CCN(c4ccc(OC(F)(F)F)cc4)C3=O)CC2)cc1 [Example 13, (4-Methoxy-benzyl)-carbamic acid [(5α,8β)-1-oxo-2-(4-trifluoromethoxy-phenyl)-2-aza-spiro[4.5]dec-8-yl]ester] | 7.05
18 | O=C(NCc1ccccc1F)O[C@H]1CC[C@@]2(CCN(c3ccc(OC(F)(F)F)cc3)C2=O)CC1 [Example 14, (2-Fluoro-benzyl)-carbamic acid [(5α,8β)-1-oxo-2-(4-trifluoromethoxy-phenyl)-2-aza-spiro[4.5]dec-8-yl]ester] | 7.70
19 | O=C(NCc1ccc(F)cc1)O[C@H]1CC[C@@]2(CCN(c3ccc(OC(F)(F)F)cc3)C2=O)CC1 [Example 15, (4-Fluoro-benzyl)-carbamic acid [(5α,8β)-1-oxo-2-(4-trifluoromethoxy-phenyl)-2-aza-spiro[4.5]dec-8-yl]ester] | 7.15
20 | Cc1cccc(CO[C@H]2CC[C@@]3(CCN(c4ccc(OC(F)(F)F)cc4)C3=O)CC2)n1 [Example 16, (5α,8β)-8-(6-Methyl-pyridin-2-ylmethoxy)-2-(4-trifluoromethoxy-phenyl)-2-aza-spiro[4.5]decan-1-one] | 7.00
